In publication PMC8799717, “Pharmacological targeting PIKfyve and tubulin as an effective treatment strategy for double-hit lymphoma” (Cell Death Discovery, 2022) one finds remaining binding data, which are given here for 1 molecule.

SMILES strings stand for the structures.

Targets include EGFR(L861Q) (Homo sapiens, UniProt P00533, L861Q); ERBB3 (Homo sapiens, UniProt P21860); NEK9 (Homo sapiens, UniProt Q8TD19); PIK3CA (Homo sapiens, UniProt P42336); NLK (Homo sapiens, UniProt Q9UBE8); EGFR(L858R,T790M) (Homo sapiens, UniProt P00533, L858R/T790M); GRK1 (Homo sapiens, UniProt Q15835); MAP3K2 (Homo sapiens, UniProt Q9Y2U5); AKT1 (Homo sapiens, UniProt P31749); HIPK4 (Homo sapiens, UniProt Q8NE63); CDKL5 (Homo sapiens, UniProt O76039); MST1R (Homo sapiens, UniProt Q04912); CDK3 (Homo sapiens, UniProt Q00526); MARK4 (Homo sapiens, UniProt Q96L34); PLK4 (Homo sapiens, UniProt O00444); MET(M1250T) (Homo sapiens, UniProt P08581, M1250T).

What all share (assay): biochemical
Holding throughout (design): KINOMEscan active-site-directed competition binding panel, 468 kinases, percent of DMSO control at 1 uM
Common to all, as to settings: KINOMEscan binding, percent of DMSO control; read-out: Ctrl%

A further test has as its target T1, PAK7 (Homo sapiens, UniProt Q9P286).
T1 construct: gene PAK5

For another test, the target named is T2, CDK11 (Homo sapiens, UniProt Q9BWU1).
T2 construct: gene CDK19

The next test concerns the target T3, MST2 (Homo sapiens, UniProt Q13188).
T3 construct: gene STK3

For another test, the target named is T4, p38-gamma (Homo sapiens, UniProt P53778).
T4 construct: gene MAPK12

Another test has as its target T5, ASK2 (Homo sapiens, UniProt O95382).
T5 construct: gene MAP3K6

The next test deals with T6, YSK4 (Homo sapiens, UniProt Q56UN5).
T6 construct: gene MAP3K19
T6 sequence (Q56UN5 whole entry): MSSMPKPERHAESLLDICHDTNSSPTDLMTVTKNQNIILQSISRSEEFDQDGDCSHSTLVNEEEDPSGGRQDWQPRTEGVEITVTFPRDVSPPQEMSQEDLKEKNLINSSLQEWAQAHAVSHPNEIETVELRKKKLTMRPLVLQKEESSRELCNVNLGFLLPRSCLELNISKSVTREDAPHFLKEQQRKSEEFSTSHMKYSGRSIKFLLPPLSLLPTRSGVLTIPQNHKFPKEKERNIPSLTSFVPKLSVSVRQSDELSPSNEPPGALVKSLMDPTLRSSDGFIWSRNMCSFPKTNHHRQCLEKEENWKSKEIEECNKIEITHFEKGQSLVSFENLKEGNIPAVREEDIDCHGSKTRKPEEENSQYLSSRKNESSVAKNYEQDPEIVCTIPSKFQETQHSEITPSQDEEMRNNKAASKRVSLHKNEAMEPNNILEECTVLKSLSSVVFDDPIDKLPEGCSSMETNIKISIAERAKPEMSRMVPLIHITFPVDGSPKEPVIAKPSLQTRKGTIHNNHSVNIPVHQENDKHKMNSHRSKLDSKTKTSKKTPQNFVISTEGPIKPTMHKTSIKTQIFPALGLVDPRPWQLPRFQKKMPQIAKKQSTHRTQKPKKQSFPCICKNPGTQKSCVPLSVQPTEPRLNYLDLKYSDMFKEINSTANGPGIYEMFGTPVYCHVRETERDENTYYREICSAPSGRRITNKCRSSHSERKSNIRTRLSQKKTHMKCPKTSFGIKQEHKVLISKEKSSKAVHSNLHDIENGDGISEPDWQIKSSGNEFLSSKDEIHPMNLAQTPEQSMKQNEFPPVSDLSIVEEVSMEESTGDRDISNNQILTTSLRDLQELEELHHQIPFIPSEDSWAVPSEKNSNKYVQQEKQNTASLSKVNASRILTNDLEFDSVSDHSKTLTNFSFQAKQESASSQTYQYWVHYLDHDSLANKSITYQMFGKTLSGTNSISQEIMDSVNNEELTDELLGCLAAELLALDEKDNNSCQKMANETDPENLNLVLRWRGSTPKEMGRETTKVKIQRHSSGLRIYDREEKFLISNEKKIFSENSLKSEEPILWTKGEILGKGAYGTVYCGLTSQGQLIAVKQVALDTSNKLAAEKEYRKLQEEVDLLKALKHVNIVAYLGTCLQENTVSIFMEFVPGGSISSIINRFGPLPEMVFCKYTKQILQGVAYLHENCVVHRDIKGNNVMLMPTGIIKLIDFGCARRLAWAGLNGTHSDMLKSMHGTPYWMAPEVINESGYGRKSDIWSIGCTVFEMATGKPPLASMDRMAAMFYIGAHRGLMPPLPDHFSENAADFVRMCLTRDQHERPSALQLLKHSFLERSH

The target of test [1] is T7, ABL1(F317L)-phosphorylated (Homo sapiens, UniProt P00519, F317L).
T7 construct: phosphorylated

The target in another test is T8, PCTK1 (Homo sapiens, UniProt Q00536).
T8 construct: gene CDK16
T8 sequence (Q00536 whole entry): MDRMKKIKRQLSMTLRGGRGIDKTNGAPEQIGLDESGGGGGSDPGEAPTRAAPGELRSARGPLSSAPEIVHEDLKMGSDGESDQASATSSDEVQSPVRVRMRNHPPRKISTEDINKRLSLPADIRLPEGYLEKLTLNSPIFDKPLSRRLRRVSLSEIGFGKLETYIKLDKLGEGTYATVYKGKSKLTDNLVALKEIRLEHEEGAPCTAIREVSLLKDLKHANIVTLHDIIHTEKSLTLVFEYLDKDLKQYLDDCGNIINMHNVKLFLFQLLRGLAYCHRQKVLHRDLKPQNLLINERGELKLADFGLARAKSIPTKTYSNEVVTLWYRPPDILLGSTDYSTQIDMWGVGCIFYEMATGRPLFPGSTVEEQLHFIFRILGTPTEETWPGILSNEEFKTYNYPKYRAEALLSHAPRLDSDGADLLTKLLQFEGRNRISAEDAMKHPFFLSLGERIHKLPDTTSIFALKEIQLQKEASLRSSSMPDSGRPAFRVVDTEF

Chain of ERBB3 (P21860 whole entry): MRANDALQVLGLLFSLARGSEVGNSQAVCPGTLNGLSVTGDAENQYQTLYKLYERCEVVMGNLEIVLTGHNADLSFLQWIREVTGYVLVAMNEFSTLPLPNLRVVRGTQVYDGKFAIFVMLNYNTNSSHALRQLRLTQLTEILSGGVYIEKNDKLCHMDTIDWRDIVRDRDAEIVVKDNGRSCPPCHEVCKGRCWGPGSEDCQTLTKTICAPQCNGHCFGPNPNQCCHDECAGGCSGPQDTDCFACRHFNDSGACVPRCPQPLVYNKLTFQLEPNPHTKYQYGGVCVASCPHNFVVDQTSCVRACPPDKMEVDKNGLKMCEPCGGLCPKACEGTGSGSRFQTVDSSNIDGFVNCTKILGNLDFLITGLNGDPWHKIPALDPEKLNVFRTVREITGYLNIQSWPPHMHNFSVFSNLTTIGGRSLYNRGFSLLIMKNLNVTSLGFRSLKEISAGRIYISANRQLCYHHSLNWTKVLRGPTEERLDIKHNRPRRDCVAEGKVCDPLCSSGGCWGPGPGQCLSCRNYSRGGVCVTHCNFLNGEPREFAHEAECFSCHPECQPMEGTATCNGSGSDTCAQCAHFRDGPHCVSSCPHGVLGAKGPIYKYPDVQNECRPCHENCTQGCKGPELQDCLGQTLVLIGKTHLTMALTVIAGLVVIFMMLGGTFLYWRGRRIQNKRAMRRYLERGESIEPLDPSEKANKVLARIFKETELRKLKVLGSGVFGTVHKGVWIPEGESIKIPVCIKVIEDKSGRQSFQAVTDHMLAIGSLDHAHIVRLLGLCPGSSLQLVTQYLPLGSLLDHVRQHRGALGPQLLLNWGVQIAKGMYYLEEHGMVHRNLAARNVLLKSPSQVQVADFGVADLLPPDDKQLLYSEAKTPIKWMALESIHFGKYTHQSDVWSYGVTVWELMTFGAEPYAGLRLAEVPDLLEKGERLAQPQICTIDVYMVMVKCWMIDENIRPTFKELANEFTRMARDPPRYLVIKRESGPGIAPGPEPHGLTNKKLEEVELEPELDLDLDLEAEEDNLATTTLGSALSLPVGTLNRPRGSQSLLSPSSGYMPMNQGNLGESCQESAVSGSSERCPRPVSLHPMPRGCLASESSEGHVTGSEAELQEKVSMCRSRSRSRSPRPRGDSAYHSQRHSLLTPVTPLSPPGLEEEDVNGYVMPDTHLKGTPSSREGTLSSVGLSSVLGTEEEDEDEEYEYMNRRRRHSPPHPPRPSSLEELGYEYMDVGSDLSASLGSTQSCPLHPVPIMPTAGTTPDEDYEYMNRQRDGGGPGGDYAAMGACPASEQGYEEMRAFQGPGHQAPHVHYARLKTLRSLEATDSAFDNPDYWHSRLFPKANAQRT
Chain of MAP3K2 (Q9Y2U5 whole entry): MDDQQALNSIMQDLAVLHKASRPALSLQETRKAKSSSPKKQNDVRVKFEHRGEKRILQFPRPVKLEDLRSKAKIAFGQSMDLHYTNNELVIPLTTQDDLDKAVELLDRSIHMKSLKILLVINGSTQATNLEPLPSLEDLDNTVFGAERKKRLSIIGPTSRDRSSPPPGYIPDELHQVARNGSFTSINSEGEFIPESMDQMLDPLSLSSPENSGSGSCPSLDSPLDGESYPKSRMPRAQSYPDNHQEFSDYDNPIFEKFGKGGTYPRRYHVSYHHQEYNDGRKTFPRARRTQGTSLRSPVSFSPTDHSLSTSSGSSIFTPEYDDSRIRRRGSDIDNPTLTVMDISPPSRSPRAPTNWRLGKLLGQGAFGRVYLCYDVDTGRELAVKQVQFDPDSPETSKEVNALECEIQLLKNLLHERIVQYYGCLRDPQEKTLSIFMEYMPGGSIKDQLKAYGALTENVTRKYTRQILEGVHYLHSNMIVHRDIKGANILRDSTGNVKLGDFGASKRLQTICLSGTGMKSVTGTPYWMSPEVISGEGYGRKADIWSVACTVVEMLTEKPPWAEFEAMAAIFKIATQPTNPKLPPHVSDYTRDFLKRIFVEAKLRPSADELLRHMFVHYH
Chain of CDK3 (Q00526 whole entry): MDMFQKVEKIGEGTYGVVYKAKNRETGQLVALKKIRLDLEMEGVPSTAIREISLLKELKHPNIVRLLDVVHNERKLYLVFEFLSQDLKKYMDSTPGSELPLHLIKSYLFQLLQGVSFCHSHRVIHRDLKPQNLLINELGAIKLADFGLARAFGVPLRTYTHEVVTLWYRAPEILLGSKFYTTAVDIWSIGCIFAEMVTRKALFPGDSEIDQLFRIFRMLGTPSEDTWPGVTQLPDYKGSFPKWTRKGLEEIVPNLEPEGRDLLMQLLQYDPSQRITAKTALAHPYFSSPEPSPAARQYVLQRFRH
Chain of CDKL5 (O76039 whole entry): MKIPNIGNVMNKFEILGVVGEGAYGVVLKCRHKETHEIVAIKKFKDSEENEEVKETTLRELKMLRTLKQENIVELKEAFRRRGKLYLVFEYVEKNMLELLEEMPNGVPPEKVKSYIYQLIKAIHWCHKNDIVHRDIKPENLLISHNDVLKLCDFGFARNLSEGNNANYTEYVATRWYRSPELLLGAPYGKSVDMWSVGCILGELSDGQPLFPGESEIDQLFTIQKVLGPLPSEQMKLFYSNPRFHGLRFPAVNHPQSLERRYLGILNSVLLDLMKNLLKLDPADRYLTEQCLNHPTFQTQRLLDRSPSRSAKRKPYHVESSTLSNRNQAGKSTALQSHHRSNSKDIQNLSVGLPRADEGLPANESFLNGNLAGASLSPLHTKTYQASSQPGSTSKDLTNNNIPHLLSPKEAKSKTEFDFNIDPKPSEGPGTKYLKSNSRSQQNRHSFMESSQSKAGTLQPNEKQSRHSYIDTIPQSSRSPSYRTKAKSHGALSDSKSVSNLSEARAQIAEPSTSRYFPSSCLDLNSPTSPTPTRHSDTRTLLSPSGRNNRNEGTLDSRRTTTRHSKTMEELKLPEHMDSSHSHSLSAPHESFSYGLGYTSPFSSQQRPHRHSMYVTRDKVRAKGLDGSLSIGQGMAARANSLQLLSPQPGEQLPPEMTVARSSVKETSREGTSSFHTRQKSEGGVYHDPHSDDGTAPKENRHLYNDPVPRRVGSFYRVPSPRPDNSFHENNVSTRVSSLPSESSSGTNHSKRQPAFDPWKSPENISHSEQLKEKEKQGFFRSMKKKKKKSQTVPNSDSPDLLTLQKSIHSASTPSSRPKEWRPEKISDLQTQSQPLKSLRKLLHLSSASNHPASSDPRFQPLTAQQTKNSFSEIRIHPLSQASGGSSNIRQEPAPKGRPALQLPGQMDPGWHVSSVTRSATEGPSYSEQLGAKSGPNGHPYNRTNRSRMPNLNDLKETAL

On to `Cc1ccc(NC(=O)c2cccc(C(F)(F)F)c2)cc1Nc1cc(-c2cccnc2)nc2[nH]ccc12` [HZX-02-059], for which the remaining binding at 1 µM is 65% on PAK7; 76% at EGFR(L861Q); 100% at ERBB3; 79% on CDK11; 97% at MST2; 71% on NEK9. For the same molecule, the remaining binding at 1 µM on PIK3CA is 100%; at NLK, 100%; at EGFR(L858R,T790M), 79%; on GRK1 it was 77%; on MAP3K2, 74%; at AKT1, 99%. The remaining binding at 1 µM on p38-gamma is 92%; at HIPK4 it was 86%; on CDKL5, 90%; on ASK2 it was 66%; at MST1R it was 89%; at CDK3 it was 100%. Moreover, the remaining binding at 1 µM came out at 100% at YSK4; 100% at MARK4; 91% at PLK4; 100% at MET(M1250T); 65% in test [1]; 100% on PCTK1.
